# Assays:
# [1] = target: T1, Alpha-1D adrenergic receptor (Homo sapiens, UniProt P25100); assay: Displacement of [125I]HEAT from human Alpha-1D adrenergic receptor expressed in HEK cells; assay type: cell-based, HEK293
# T1 sequence (P25100 whole entry): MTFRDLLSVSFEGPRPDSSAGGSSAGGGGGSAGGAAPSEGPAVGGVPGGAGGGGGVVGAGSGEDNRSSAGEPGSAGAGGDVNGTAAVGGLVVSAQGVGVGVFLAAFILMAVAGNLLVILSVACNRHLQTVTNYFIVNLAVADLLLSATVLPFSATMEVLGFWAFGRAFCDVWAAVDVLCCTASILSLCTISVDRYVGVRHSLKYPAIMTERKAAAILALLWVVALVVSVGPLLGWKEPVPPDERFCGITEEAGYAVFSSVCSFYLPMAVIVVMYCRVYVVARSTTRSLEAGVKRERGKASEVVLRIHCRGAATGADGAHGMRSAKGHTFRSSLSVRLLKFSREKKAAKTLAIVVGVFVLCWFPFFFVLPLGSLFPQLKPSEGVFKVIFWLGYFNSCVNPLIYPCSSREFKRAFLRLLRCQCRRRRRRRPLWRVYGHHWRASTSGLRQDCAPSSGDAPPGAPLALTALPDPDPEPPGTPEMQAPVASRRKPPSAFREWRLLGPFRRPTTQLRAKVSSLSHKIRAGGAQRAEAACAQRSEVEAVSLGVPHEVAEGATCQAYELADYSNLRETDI
# [2] = target: T2, Alpha-1A adrenergic receptor (Homo sapiens, UniProt P35348); assay: Displacement of [125I]HEAT from human Alpha-1C adrenergic receptor expressed in CHO cells; assay type: cell-based
# T2 sequence (P35348 whole entry): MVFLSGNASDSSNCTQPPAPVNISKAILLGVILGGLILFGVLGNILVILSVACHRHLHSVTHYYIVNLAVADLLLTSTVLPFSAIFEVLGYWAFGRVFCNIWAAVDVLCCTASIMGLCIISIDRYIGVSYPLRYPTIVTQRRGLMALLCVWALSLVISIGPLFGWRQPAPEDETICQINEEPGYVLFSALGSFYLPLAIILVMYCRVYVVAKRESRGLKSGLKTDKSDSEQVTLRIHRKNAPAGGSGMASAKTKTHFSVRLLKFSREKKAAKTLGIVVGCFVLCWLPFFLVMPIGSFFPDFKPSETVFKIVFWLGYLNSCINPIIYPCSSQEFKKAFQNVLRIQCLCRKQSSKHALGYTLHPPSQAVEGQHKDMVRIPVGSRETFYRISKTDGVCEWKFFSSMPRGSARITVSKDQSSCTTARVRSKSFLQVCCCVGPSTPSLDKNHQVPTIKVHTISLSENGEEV
# [3] = target: T3, Alpha-1B adrenergic receptor (Homo sapiens, UniProt P35368); assay: Displacement of [125I]HEAT from human Alpha-1B adrenergic receptor expressed in LM cells; assay type: cell-based
# T3 sequence (P35368 whole entry): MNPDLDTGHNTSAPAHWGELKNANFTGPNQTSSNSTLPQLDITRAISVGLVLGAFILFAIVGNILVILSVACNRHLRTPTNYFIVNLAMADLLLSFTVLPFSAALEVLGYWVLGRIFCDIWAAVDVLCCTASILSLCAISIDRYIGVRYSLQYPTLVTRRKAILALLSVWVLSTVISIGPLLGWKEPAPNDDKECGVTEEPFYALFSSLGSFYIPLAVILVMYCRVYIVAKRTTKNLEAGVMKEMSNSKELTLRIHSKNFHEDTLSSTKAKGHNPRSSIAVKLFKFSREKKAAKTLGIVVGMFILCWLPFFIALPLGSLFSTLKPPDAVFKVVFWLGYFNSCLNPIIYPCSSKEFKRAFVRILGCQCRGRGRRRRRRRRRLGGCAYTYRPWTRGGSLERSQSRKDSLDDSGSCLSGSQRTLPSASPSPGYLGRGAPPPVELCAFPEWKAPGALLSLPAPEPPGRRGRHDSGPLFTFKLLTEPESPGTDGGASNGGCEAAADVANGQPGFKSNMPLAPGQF
# Mustela putorius furo = organism: Mustela putorius furo; assay: In vitro concentration required to increase the effective refractory period (ERP) above baseline was evaluated using isolated ferret papillary muscle preparations; assay type: functional; conditions: Muscle tissue
# [4] = target: T4, Alpha-1A adrenergic receptor (Rattus norvegicus, UniProt P43140); assay: Binding affinity against Alpha-1A adrenergic receptor in rat prostatic tissue
# T4 sequence (P43140 whole entry): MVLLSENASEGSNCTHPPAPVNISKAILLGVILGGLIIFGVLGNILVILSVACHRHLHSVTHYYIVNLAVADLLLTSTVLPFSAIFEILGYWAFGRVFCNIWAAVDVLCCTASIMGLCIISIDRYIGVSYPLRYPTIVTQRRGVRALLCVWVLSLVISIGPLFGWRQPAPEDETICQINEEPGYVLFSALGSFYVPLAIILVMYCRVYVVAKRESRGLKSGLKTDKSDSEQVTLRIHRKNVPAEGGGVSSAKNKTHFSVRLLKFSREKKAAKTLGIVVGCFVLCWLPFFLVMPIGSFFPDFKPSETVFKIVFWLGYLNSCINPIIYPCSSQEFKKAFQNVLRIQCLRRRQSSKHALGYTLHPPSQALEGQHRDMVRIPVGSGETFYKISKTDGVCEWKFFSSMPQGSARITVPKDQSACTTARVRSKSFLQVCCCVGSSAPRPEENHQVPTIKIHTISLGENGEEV
# [5] = target: T2, Alpha-1A adrenergic receptor; assay: Ability to displace [125I]HEAT from cloned human Alpha-1A adrenergic receptor stably expressed in CHO cells; assay type: cell-based
# [6] = target: T2, Alpha-1A adrenergic receptor; assay: Binding affinity against Alpha-1A adrenergic receptor in human prostatic tissue
Ki [1],Ki [2],Ki [3],Ki [4],Ki [5],Ki [6],Structure (SMILES),EC25 (Mustela putorius furo)
149 nM,31 nM,49 nM,,,,O=C1c2ccccc2CC12CCN(CCc1cccc3ccccc13)CC2,
200 nM,71 nM,53 nM,,,,C1=CC2(CCN(CCc3cccc4ccccc34)CC2)Oc2ccccc21,
3840 nM,> 2000 nM,> 2000 nM,,,,CS(=O)(=O)Nc1ccc2c(c1)C(=O)CC1(CCN(CCc3ccccn3)CC1)O2,33 nM
24 nM,8 nM,53 nM,,,,Cn1cnc(S(=O)(=O)Nc2ccc3c(c2)C(=O)CC2(CCN(CCc4cccc5ccccc45)CC2)O3)c1,> 30000 nM
18 nM,,24 nM,10 nM,0.69 nM,10 nM,Cc1noc(C)c1S(=O)(=O)Nc1ccc2c(c1)C(=O)CC1(CCN(CCc3cccc4ccccc34)CC1)O2,> 30000 nM
99 nM,56 nM,55 nM,,,,c1ccc2c(c1)CCC1(CCN(CCc3cccc4ccccc34)CC1)O2,
67 nM,53 nM,48 nM,,,,O=C1CC2(CCN(CCc3cccc4ccccc34)CC2)Oc2ccccc21,
53 nM,13 nM,24 nM,,,,O=C1CC2(CCN(CCc3cccc4ccccc34)CC2)Oc2ccc(NS(=O)(=O)Cc3ccccc3)cc21,> 30000 nM
3250 nM,1670 nM,> 2000 nM,,,,CS(=O)(=O)Nc1ccc2c(c1)OC1(CCN(CCc3ccccn3)CC1)CC2=O,6600 nM
94 nM,6.5 nM,175 nM,,,,COc1ccccc1CCN1CCC2(CC1)CC(=O)c1ccc(NS(C)(=O)=O)cc1O2,3800 nM
1520 nM,793 nM,1290 nM,,,,O=C1CC2(CCN(CCc3ccccn3)CC2)Oc2ccccc21,160 nM
60 nM,45 nM,137 nM,,,,O=C1OC2(CCN(CCc3cccc4ccccc34)CC2)Cc2ccccc21,
115 nM,8 nM,221 nM,,,,Cc1[nH]c2ccccc2c1CCN1CCC2(CC1)CC(=O)c1ccc(NS(C)(=O)=O)cc1O2,> 30000 nM
136 nM,20 nM,149 nM,,,,CS(=O)(=O)Nc1ccc2c(c1)OC1(CCN(CCc3cccc4ccccc34)CC1)CC2=O,9000 nM

# Source: ChEMBL document CHEMBL1132031, “4-Oxospiro[benzopyran-2,4'-piperidines] as selective alpha 1a-adrenergic receptor antagonists” (Bioorg Med Chem Lett, 1999)
